Experimental findings from US9790169B2, “IDO inhibitors” (BRISTOL-MYERS SQUIBB COMPANY, priority 2015, dated 2017) are described below.

The experiment addresses human IDO1 (Homo sapiens, UniProt P14902). Put plainly: Assessment of human IDO-1 inhibitory activity in HEK cells (human IDO1/HEK293 cells, kynurenine read-out with Ehrlich reagent, absorbance 490 nm). Format: cell-based. Also on record: expressed in transfected cells. As to conditions: HEK Human IDO-1 cellular assay. The method in brief:
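Kynurenine output from stably IDO1-transfected HEK293 cells (10,000/well, phenol red-free RPMI, 10% FBS) after 20 h compound exposure at 37 °C. The reaction was stopped with 0.2% TCA and heated 30 min at 50 °C, then the supernatant was mixed with Ehrlich reagent and read at 490 nm. IC50 was set against DMSO and a 500 nM reference standard as 0 and 100% inhibition.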

human IDO1, sequence (P14902 whole entry): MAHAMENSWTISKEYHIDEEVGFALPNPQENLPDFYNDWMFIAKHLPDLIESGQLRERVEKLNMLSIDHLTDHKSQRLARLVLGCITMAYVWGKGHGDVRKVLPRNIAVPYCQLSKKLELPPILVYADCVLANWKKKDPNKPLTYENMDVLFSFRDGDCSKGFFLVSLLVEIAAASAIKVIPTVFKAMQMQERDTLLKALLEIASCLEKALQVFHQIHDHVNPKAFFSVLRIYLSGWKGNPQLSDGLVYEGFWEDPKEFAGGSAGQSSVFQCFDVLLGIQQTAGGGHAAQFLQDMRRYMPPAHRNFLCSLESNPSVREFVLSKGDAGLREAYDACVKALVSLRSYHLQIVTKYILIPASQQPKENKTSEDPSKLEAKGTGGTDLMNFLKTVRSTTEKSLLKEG

Turning to `COCC(CC(=O)O)c1cc(F)c(N(CC(C)C)C2CCCCC2)c(NC(=O)Nc2ccc(OC(F)(F)F)cc2)c1` (single isomer, unassigned) [Example 1154, 3-(4-(cyclohexyl(isobutyl)amino)-3-fluoro-5-(3-(4-(trifluoromethoxy)phenyl)ureido)phenyl)-4-methoxybutanoic acid], the IC50 is less than 50 nM.

In the case of `COCC(CC(=O)O)c1cc(F)c(N(CC(C)C)C2CCCCC2)c(NC(=O)Nc2ccc(C)cc2)c1` (single isomer, unassigned) [Example 1155, 3-(4-(cyclohexyl(isobutyl)amino)-3-fluoro-5-(3-(p-tolyl)ureido)phenyl)-4-methoxybutanoic acid], the IC50 is less than 5 nM. With `COCC(CC(=O)O)c1cc(F)c(N(CC(C)C)C2CCCCC2)c(NC(=O)Nc2ccc(Cl)cc2F)c1` (single isomer, unassigned) [Example 1156, 3-(3-(3-(4-chloro-2-fluorophenyl)ureido)-4-(cyclohexyl(isobutyl)amino)-5-fluorophenyl)-4-methoxybutanoic acid] the figure was less than 5 nM; with `CCOc1ccc(NC(=O)Nc2cc(C(COC)CC(=O)O)cc(F)c2N(CC(C)C)C2CCCCC2)c(F)c1` (single isomer, unassigned) [Example 1157, 3-(4-(cyclohexyl(isobutyl)amino)-3-(3-(4-ethoxy-2-fluorophenyl)ureido)-5-fluorophenyl)-4-methoxybutanoic acid], less than 5 nM. With `COCC(CC(=O)O)c1cc(F)c(N(CC(C)C)C2CCCCC2)c(NC(=O)Nc2cc(C)on2)c1` (single isomer, unassigned) [Example 1158, 3-(4-(cyclohexyl(isobutyl)amino)-3-fluoro-5-(3-(5-methylisoxazol-3-yl)ureido)phenyl)-4-methoxybutanoic acid] the figure was less than 50 nM; with `CCOc1ccc(NC(=O)Nc2cc(C(COC)CC(=O)O)cc(F)c2N(CC(C)C)C2CCCCC2)cc1` (single isomer, unassigned) [Example 1160, 3-(4-(cyclohexyl(isobutyl)amino)-3-(3-(4-ethoxyphenyl)ureido)-5-fluorophenyl)-4-methoxybutanoic acid], less than 5 nM.

With `COCC(CC(=O)O)c1cc(F)c(N(CC(C)C)C2CCCCC2)c(NC(=O)Nc2ccc(Cl)cc2)c1` (single isomer, unassigned) [Example 1162, 3-(3-(3-(4-chlorophenyl)ureido)-4-(cyclohexyl(isobutyl)amino)-5-fluorophenyl)-4-methoxybutanoic acid], the IC50 was less than 5 nM. To `COCC(CC(=O)O)c1cc(F)c(N(CC(C)C)C2CCCCC2)c(NC(=O)Nc2ccc(OC(F)(F)F)cc2)c1` (single isomer, unassigned) [Example 1163, 3-(4-(cyclohexyl(isobutyl)amino)-3-fluoro-5-(3-(4-(trifluoromethoxy)phenyl)ureido)phenyl)-4-methoxybutanoic acid] belongs less than 5 nM; to `COCC(CC(=O)O)c1cc(F)c(N(CC(C)C)C2CCCCC2)c(NC(=O)Nc2cc(C)on2)c1` (single isomer, unassigned) [Example 1167, 3-(4-(cyclohexyl(isobutyl)amino)-3-fluoro-5-(3-(5-methylisoxazol-3-yl)ureido)phenyl)-4-methoxybutanoic acid], less than 5 nM; to `CCOc1ccc(CC(=O)Nc2cc(C(COC)CC(=O)O)cc(F)c2N(CC(C)C)C2CCCCC2)cc1` (single isomer, unassigned) [Example 1168, 3-(4-(cyclohexyl(isobutyl)amino)-3-(2-(4-ethoxyphenyl)acetamido)-5-fluorophenyl)-4-methoxybutanoic acid], less than 50 nM. With `COCC(CC(=O)O)c1cc(F)c(N(CC(C)C)C2CCCCC2)c(NC(=O)Cc2cc(C)on2)c1` (single isomer, unassigned) [Example 1169, 3-(4-(cyclohexyl(isobutyl)amino)-3-fluoro-5-(2-(5-methylisoxazol-3-yl)acetamido)phenyl)-4-methoxybutanoic acid] the figure was more than 50 nM; with `COCC(CC(=O)O)c1cc(F)c(N(CC(C)C)C2CCCCC2)c(NC(=O)Cc2ccc(C)cc2)c1` (single isomer, unassigned) [Example 1170, 3-(4-(cyclohexyl(isobutyl)amino)-3-fluoro-5-(2-(p-tolyl)acetamido)phenyl)-4-methoxybutanoic acid], less than 50 nM.

With `COCC(CC(=O)O)c1cc(F)c(N(CC(C)C)C2CCCCC2)c(NC(=O)Cc2ccc(Cl)cc2F)c1` (single isomer, unassigned) [Example 1172, 3-(3-(2-(4-chloro-2-fluorophenyl)acetamido)-4-(cyclohexyl(isobutyl)amino)-5-fluorophenyl)-4-methoxybutanoic acid], the IC50 is less than 50 nM. With `COCC(CC(=O)O)c1cc(F)c(N(CC(C)C)CC(C)C)c(NC(=O)Nc2ccc(OC)cc2F)c1` (single isomer, unassigned) [Example 1176, 3-(4-(Diisobutylamino)-3-fluoro-5-(3-(2-fluoro-4-methoxyphenyl)ureido)phenyl)-4-methoxybutanoic acid] the figure was less than 5 nM; with `COCC(CC(=O)O)c1cc(F)c(N(CC(C)C)CC(C)C)c(NC(=O)Cc2ccc(C)cc2)c1` (single isomer, unassigned) [Example 1177, 3-(4-(Diisobutylamino)-3-fluoro-5-(2-(p-tolyl)acetamido)phenyl)-4-methoxybutanoic acid], less than 50 nM; with `CCOc1ccc(NC(=O)Nc2cc(C(COC)CC(=O)O)cc(F)c2N(CC(C)C)CC(C)C)c(F)c1` (single isomer, unassigned) [Example 1178, 3-(4-(Diisobutylamino)-3-(3-(4-ethoxy-2-fluorophenyl)ureido)-5-fluorophenyl)-4-methoxybutanoic acid], less than 50 nM.

Take `CCOc1ccc(NC(=O)Nc2cc(C(COC)CC(=O)O)cc(F)c2N(CC(C)C)CC(C)C)cc1` (single isomer, unassigned) [Example 1179, 3-(4-(Diisobutylamino)-3-(3-(4-ethoxyphenyl)ureido)-5-fluorophenyl)-4-methoxybutanoic acid]: the concentration for half-maximal inhibition (IC50) was less than 50 nM. With `COCC(CC(=O)O)c1cc(F)c(N(CC(C)C)CC(C)C)c(NC(=O)Cc2ccc(Cl)cc2F)c1` (single isomer, unassigned) [Example 1180, 3-(3-(2-(4-Chloro-2-fluorophenyl)acetamido)-4-(diisobutylamino)-5-fluorophenyl)-4-methoxybutanoic acid] the figure was less than 5 nM.

For the compound `CCOc1ccc(CC(=O)Nc2cc(C(COC)CC(=O)O)cc(F)c2N(CC(C)C)CC(C)C)cc1` (single isomer, unassigned) [Example 1181, 3-(4-(Diisobutylamino)-3-(2-(4-ethoxyphenyl)acetamido)-5-fluorophenyl)-4-methoxybutanoic acid], the IC50 is less than 50 nM. To `COCC(CC(=O)O)c1cc(F)c(N(CC(C)C)CC(C)C)c(NC(=O)Nc2ccc(Cl)cc2F)c1` (single isomer, unassigned) [Example 1182, 3-(3-(3-(4-Chloro-2-fluorophenyl)ureido)-4-(diisobutylamino)-5-fluorophenyl)-4-methoxybutanoic acid] belongs less than 5 nM. To `COCC(CC(=O)O)c1cc(F)c(N(CC(C)C)CC(C)C)c(NC(=O)Nc2cncnc2)c1` (single isomer, unassigned) [Example 1183, 3-(4-(Diisobutylamino)-3-fluoro-5-(3-(pyrimidin-5-yl)ureido)phenyl)-4-methoxybutanoic acid] belongs less than 50 nM; to `COCC(CC(=O)O)c1cc(F)c(N(CC(C)C)CC(C)C)c(NC(=O)Nc2cc(C)on2)c1` (single isomer, unassigned) [Example 1184, 3-(4-(Diisobutylamino)-3-fluoro-5-(3-(5-methylisoxazol-3-yl)ureido)phenyl)-4-methoxybutanoic acid], less than 50 nM; to `COCC(CC(=O)O)c1cc(F)c(N(CC(C)C)CC(C)C)c(NC(=O)Nc2ccc(C)cc2)c1` (single isomer, unassigned) [Example 1186, 3-(4-(Diisobutylamino)-3-fluoro-5-(3-(p-tolyl)ureido)phenyl)-4-methoxybutanoic acid], less than 5 nM.

Take `COCC(CC(=O)O)c1cc(F)c(N(CC(C)C)CC(C)C)c(NC(=O)Cc2ccc(C)cc2)c1` (single isomer, unassigned) [Example 1190, 3-(4-(Diisobutylamino)-3-fluoro-5-(2-(p-tolyl)acetamido)phenyl)-4-methoxybutanoic acid]: the IC50 was less than 5 nM. To `CCOc1ccc(NC(=O)Nc2cc(C(COC)CC(=O)O)cc(F)c2N(CC(C)C)CC(C)C)c(F)c1` (single isomer, unassigned) [Example 1191, 3-(4-(Diisobutylamino)-3-(3-(4-ethoxy-2-fluorophenyl)ureido)-5-fluorophenyl)-4-methoxybutanoic acid] belongs less than 5 nM. With `COCC(CC(=O)O)c1cc(F)c(N(CC(C)C)CC(C)C)c(NC(=O)Nc2ccc(OC(F)(F)F)cc2)c1` (single isomer, unassigned) [Example 1192, 3-(4-(Diisobutylamino)-3-fluoro-5-(3-(4-(trifluoromethoxy)phenyl)ureido)phenyl)-4-methoxybutanoic acid] the figure was less than 50 nM; with `COCC(CC(=O)O)c1cc(F)c(N(CC(C)C)CC(C)C)c(NC(=O)Nc2ccc(C)cc2)c1` (single isomer, unassigned) [Example 1194, 3-(4-(Diisobutylamino)-3-fluoro-5-(3-(p-tolyl)ureido)phenyl)-4-methoxybutanoic acid], less than 50 nM. To `COCC(CC(=O)O)c1cc(F)c(N(CC(C)C)CC(C)C)c(NC(=O)Nc2cncnc2)c1` (single isomer, unassigned) [Example 1196, 3-(4-(Diisobutylamino)-3-fluoro-5-(3-(pyrimidin-5-yl)ureido)phenyl)-4-methoxybutanoic acid] belongs more than 50 nM.

As a reminder, the IC50 is the midpoint of a concentration-inhibition curve.
